Measurements published in patent US20040234972A1, “Method for identifying and purifying smooth muscle progenitor cells” (priority 2001, published 2004).

How the values were obtained:
[1] = test system: A404 cells; experiment: RA-induced SMC differentiation of A404 cells, immunocytochemical staining; type: cell-based, mouse
Protocol: The culture methods for SMC differentiation are outlined in FIG. 1. Cells were trypsinized and plated in a 10 cm dish in α-MEM containing 7.5% FBS and 1 μmol/L all trans-retinoic acid (Sigma, R2625) at a density of 10,000 cells/cm^2 (day 0). The culture medium was replaced once on day 2. On day 3, RA was removed from the culture medium. On day 4, cells were trypsinized and plated in two 10 cm dishes in the medium containing […] puromycin (Clontech). Except otherwise noted, samples for various analyses were prepared from cells treated with puromycin for two days. During puromycin selection, the medium was replaced every day.
Western blot analysis was performed as previously described Regan et al., J. Clin Invest. 2000; 106:1139-47. SM-MHC expression was assessed using a rabbit anti-chicken SM-MHC antibody (1:200,000, a gift from Dr. U. Groschel-Stewart). The specificity of this antibody for mouse MHC isoforms has been thoroughly characterized. The antibody was not reactive with nonmuscle MHCs in Western blotting. Immnunocytochemical staining was performed using Vectastain ABC-AP kit (Vector Laboratories). Antibodies and dilutions used were 1:1000 anti-SM α-actin antibody (Sigma), 1:500 anti-SM-MHC antibody, and 1:1000 anti-neuron-specific β-tubulin antibody (TUJ1, Berkeley Antibody Company).

[2] = test system: P19 cells; experiment: RA-induced SMC differentiation of parental P19 cells; type: cell-based, mouse; conditions: within 4 days
Protocol: P19 cells were obtained from American Type Culture Collection (CRL-1825). Cells were maintained in α-minimum essential medium (α-MEM, Sigma, M0644) supplemented with 7.5% fetal bovine serum (FBS), 200 μg/ml L-glutamine and penicillin/streptomycin (Lifetechnologies). For transfection and differentiation induction experiments, P19 cell cultures less than 6 passages from the initial culture obtained from ATCC were used. […] Cells were trypsinized and plated in a 10 cm dish in α-MEM containing 7.5% FBS and 1 μmol/L all trans-retinoic acid (Sigma, R2625) at a density of 10,000 cells/cm^2 (day 0). The culture medium was replaced once on day 2. On day 3, RA was removed from the culture medium. On day 4, cells were trypsinized and plated in two 10 cm dishes in the medium containing 0.5 ng/ml puromycin (Clontech). Except otherwise noted, samples for various analyses were prepared from cells treated with puromycin for two days. During puromycin selection, the medium was replaced every day.

[3] = RA-treated A404 cells, after 2-days of puromycin treatment

Compound	α-actin negative neuron-like cells, fraction of total cell population ([1]; by 4 days after RA treatment, no puromycin)	fraction of total A404 cell population stained positively for SM α-actin ([1]; by 4 days following RA treatment, no puromycin)	cells estimated to differentiate into SMCs [2]	cells positive for TUJ1 [1, 3]	fraction of neuron-like cells [1, 3]	number of neuronal cells ([1]; RA-treated A404 cells, five-days of puromycin treatment)	cells stained positively for both SM α-actin and SM-MHC ([1]; RA-treated A404 cells, following 2 to 5-days treatment with puromycin)
CC1=C(/C=C/C(C)=C/C=C/C(C)=C/C(=O)O)C(C)(C)CCC1 [RA, all trans-retinoic acid]	10-20%	> 80%	1-5%	–	–	–	–
COc1ccc(C[C@H](N)C(=O)N[C@H]2[C@@H](O)[C@H](n3cnc4c(N(C)C)ncnc43)O[C@@H]2CO)cc1 [puromycin]	–	–	–	< 0.1%	5-10%	less than 5%	> 90%
